Experimental data as given in patent publication US6300327A, “Compositions and methods for potentiation of neurotrophin activity” (The University of Southern California, priority 1997, dated 2001).

Experiments:
[1] = tested on: forebrain cholinergic neurons (cultures of rat basal forebrain); experiment: ChAT activity in primary cultures of fetal rat basal forebrain (septal) cholinergic neurons treated with neurotrophins and K-252 compounds; format: cell-based
Procedure: Recombinant human NGF (rhNGF), BDNF (rhBDNF), and NT-3 (rhNT-3) and K-252b were added to primary cultures of fetal rat brain neurons containing either forebrain cholinergic or midbrain dopaminergic neurons. A broad range of concentrations of K-252b were tested in presence of 50 ng/ml rhNGF, 200 ng/ml rhBDNF and 1 μg/ml rhNT-3, growth factor concentrations producing maximal trophic actions on cholinergic neurons. The trophic action was monitored by measuring the activity of ChAT, a parameter reflecting both survival and transmitter-specific differentiation of cholinergic cells.
Primary cultures of fetal rat brain septal and mesencephalic cells were prepared in a heretofore known manner [Knusel et al., supra]. Briefly, defined areas were dissected from fetal rat brains (Wistar, E15-16, Charles River, Mass.). The septal area contained the cholinergic neurons from septum, diagonal band of Broca and nucleus basalis. The ventral mesencephalon containing the dopaminergic neurons of the substantia nigra and the ventral tegmental area was dissected and dissociated mechanically. The cells were plated in 16 mm multiwell plates precoated with polyethyleneimine (1 mg/ml, 37° C., overnight), containing 0.5 ml modified L-15 medium supplemented with 5% heat inactivated horse serum and 0.5% heat inactivated fetal calf serum. Modified L-15 was prepared [Knusel et al., "Selective and Nonselective Stimulation of Central Cholinergic and dopaminergic Development in vitro by Nerve Growth Factor, Basic Fibroblast Growth Factor, Epidermal Growth Factor, Insulin and the Insulin-like Growth Factors I and II," J. Neurosci. 10:558-570 (1990)] by adding various amino acids, vitamins, antibiotics, glucose and NaHCO3 to Leibovitz's L-15 medium (Gibco, Grand Island, N.Y.). Plating densities were 4×10^5 cells/cm^2 for basal forebrain cultures and 3×10^5 cells/cm^2 for mesencephalic cultures. Of these cells, 0.5 to 1% were cholinergic or dopaminergic, respectively. Growth factors were typically added on the second day of culture and the cells were grown for 5 or more days. For ChAT assays tissue was homogenized in 250 μl of 50 mM Tris-HCl buffer, pH 6.0 with 0.3% Triton X-100. [1-^14 C]acetylcoenzyme A (NEN) concentration was 20 μM and specific activity 4.09 Ci/mol. To measure dopamine uptake, cultures were preincubated for 5 min at 37° C. with 250 μl incubation solution (5 mM glucose, 1 mM ascorbic acid in PBS) containing 1 mM pargyline. [^3 H]dopamine (37 Ci/mmol) was then added to give a final concentration of 50 nM and the cultures were incubated for another 15 minutes. Blanks were obtained by incubating cells at 0° C.
FIG. 1 illustrates levels of ChAT activity in cultures of rat basal forebrain treated with rhNGF, rhBDNF, or rhNT- and K-252b. Growth factors were added on the second day of culture and the cells were grown for 5 days. Growth factor concentrations producing maximal elevations of ChAT activity were used. In FIG. 1, .largecircle. represents the control; .quadrature., 50 ng/ml rhNGF; Δ, 200 ng/ml rhBDNF; and .tangle-soliddn., 1 μg/ml rhNT-3. The ChAT stimulation mediated by all three neurotrophins was inhibited by K-252b at concentrations above 200 nM. […] N=4 per data point. Error bars represent SEMs and were omitted where they would have appeared smaller than the symbol.
These compounds were accordingly tested for possible NT-3 potentiation at lower concentrations than necessary for NGF inhibition. Culture conditions were as described in Example 1. Cultures were untreated (controls) or treated with 200 ng/ml NT-3 and increasing concentrations of the inhibitors. The findings are shown in FIG. 6, in which "Stau", "K2a", "K2b", "K57", "K58", "K59" represent, respectively, staurosporine, K-252a, K-252b, KT5720, KT5823, and KT5296. […] Staurosporine and KT5296 were ineffective.

phospholipase C gamma-1 = experiment: Tyrosine phosphorylation of phospholipase C gamma-1 and other cellular proteins in PC12 cells; format: cell-based
Procedure: To measure the status of trk tyrosine phosphorylation, PC12 cells were lysed and immunoprecipitated with anti-trk serum. The trk proteins were subjected to 7.5% SDS-PAGE and analyzed by immunoblotting with anti-phosphotyrosine antibodies as described in detail in the literature [Kaplan, D. R. et al., "PDGF beta receptor stimulates tyrosine phosphorylation of GAP and association of GAP with a signaling complex," Cell 61:125-133 (1990)]. Tyrosine phosphorylation of cellular proteins was assayed by probing Western blots of lysates of PC12 cells incubated with K-252b and NT-3 or NGF with anti-phosphotyrosine antibodies. Phospholipase C gammal was identified in these blots as described elsewhere [Vetter, M.L. et al., "Nerve growth factor rapidly stimulates tyrosine phosphorylation of phospholipase C-gammal by a kinase activity associated with the product of trk protooncogene," Proc. Natl Acad. Sci. USA 88:5650-5654 (1991)].

trkB = experiment: Cell-free tyrosine phosphorylation of recombinant human trkB expressed in Sf9 insect cells; format: biochemical; conditions: 10 μM K-252b
Procedure: Human trk and trkB were expressed in Sf9 insect cells transfected using a baculovirus system. The trk proteins were immunoprecipitated as described above and the precipitates were incubated with 20 μCi [gamma-^32 P]ATP, 10 mM MnCl2, 20 mM Tris, pH 7.4, for 5 min at 25° C. in the presence of increasing amounts of K-252b or control solution. Phosphorylated proteins were analyzed as described for FIG. 4B. The tyrosine kinase activity of the trk and trkB proteins was activated in the absence of ligand, a common observation for receptor tyrosine kinase produced in the baculovirus system. The trk and trkB proteins were 25% pure as assayed by SDS-PAGE.
K-252b interacts directly with the trk and trkB protein. Human trk and trkB were expressed in Sf9 insect cells transfected using a baculovirus system. trk proteins were immunoprecipitated and the precipitates were incubated with [gamma^32 P]ATP in the presence of increasing amounts of K-252b or control solution.

[2] = tested on: epidermal growth factor and basic fibroblast growth factor receptors; experiment: Receptor tyrosine phosphorylation induced by epidermal growth factor and basic fibroblast growth factor in PC12 cells; format: cell-based; conditions: K-252b
[3] = target: cAMP-dependent protein kinase; conditions: in vitro assay systems; cited from earlier work

CC12OC(CC1(O)C(=O)O)n1c3ccccc3c3c4c(c5c6ccccc6n2c5c31)CNC4=O (stereo not shown) [K-252b]
effect on ChAT actions of NGF or BDNF ([1]; 100 pM to 30 nM K-252b): without affecting
effect on potency and maximal efficacy of NT-3 (ChAT) ([1]; 50 nM K-252b): increased both potency and maximal efficacy
effect on NT-3 stimulation of ChAT activity ([1]; 10-100 nM K-252b with NT-3): same stimulatory effect as NGF
IC100 ([1]; Rattus norvegicus, Neuron, read-out: minimal concentration required to completely abolish the ChAT responses): ~2 µM
effect on stimulatory effects of NGF or BDNF on cholinergic neurons ([1]; low concentrations of K-252b): not potentiated
effect on ChAT increases mediated by bFGF, insulin and insulin-like growth factor-1 ([1]; non-neurotrophin growth factors): not affected
effect on trophic action of NGF on cholinergic neurons (ChAT) ([1]; relatively high dosages): completely and selectively prevent
inhibition of action of central cholinergic neurons ([1]; structural relatives, Example 6): inhibition
NT-3 mediated tyrosine phosphorylation of phospholipase C gamma-1 and other proteins (phospholipase C gamma-1; 50 nM K-252b + NT-3): enhanced
tyrosine phosphorylation of phospholipase C gamma-1 and other proteins in NGF treated cells (phospholipase C gamma-1; K-252b + NGF): inhibited
effect on trkB tyrosine phosphorylation, cell-free system (trkB): completely prevented
effect on receptor responses induced by epidermal growth factor and basic fibroblast growth factor [2]: failed to influence
Ki [3]: 10 to 100 nM
